{"source": "patent US7855165B2", "about": "“Herbicide composition for paddy field” (Bayer Cropscience AG, priority 2007, dated 2010)", "key": {"[1]": {"test_system": "annual broad-leaves (Lindernia procumbens Philcox, Rotala indica Koehne, Elatine triandra Schk, Ammannia multiflora Roxb., etc.)", "assay": "Test Example 1: effect of the herbicide composition against paddy field weeds (pot test, green house)", "type": "in vivo", "conditions": "3 weeks after treatment", "text": "(§1) In a green house, seeds or tubers of Monochoria vaginalis Presl, annual broad-leaves (Lindernia procumbens Philcox, Rotala indica Koehne, Elatine triandra Schk, Ammannia multiflora Roxb., etc.), Cyperus serotinus Rottboel, and Sagittaria pygmaea Miq were inoculated to paddy field soil filled in a 500 cm^2 pot and brought to a submerged condition of about 2-3 cm. […] After the treatment, the submerged condition of 3 cm was maintained and the herbicidal effect was studied 3 weeks after the treatment. The herbicidal effect was evaluated as 100% in case of complete death and 0% in case of no effect.\n(§2) In the tables, MOOVP represents Monochoria vaginalis Presl, BBBBB represents annual broad-leaves, CYPSE represents Cyperus serotinus Rottboel and SAGPY represents Sagittaria pygmaea Miq."}, "[2]": {"test_system": "Cyperus serotinus Rottboel", "assay": "Test Example 1: effect of the herbicide composition against paddy field weeds (pot test, green house)", "type": "in vivo", "conditions": "3 weeks after treatment", "text": "(§3) • Component (a) (a-1): compound No. 1 (ref: the aforementioned Table A) • (a-2): compound No. 3 (same as above) • (a-3): compound No. 11 (same as above) • Component (b) the aforementioned (b-1)-(b-15) • Component (c) the aforementioned (c-1)-(c-3) <Preparation of Test Agents> • Carrier: Acetone 5 parts by weight • Surfactant: Benzyloxy polyglycol ether 1 part by weight The above-mentioned carrier and surfactant and 1 part by weight of active compounds (component (a) and component (b) or component (c)) are mixed and the obtained formulations are diluted with water to prepare the test agents of the prescribed chemicals amount (preparations).\n(§4) In a green house, seeds or tubers of Monochoria vaginalis Presl, annual broad-leaves (Lindernia procumbens Philcox, Rotala indica Koehne, Elatine triandra Schk, Ammannia multiflora Roxb., etc.), Cyperus serotinus Rottboel, and Sagittaria pygmaea Miq were inoculated to paddy field soil filled in a 500 cm^2 pot and brought to a submerged condition of about 2-3 cm. At 1.5-2 leafstage of each weed prescribed diluted solution of preparation of each active compound and each herbicide in the following table was applied on water surface each singly or simultaneously. After the treatment, the submerged condition of 3 cm was maintained and the herbicidal effect was studied 3 weeks after the treatment. The herbicidal effect was evaluated as 100% in case of complete death and 0% in case of no effect.\nas §2"}, "Sagittaria pygmaea Miq": {"test_system": "Sagittaria pygmaea Miq", "assay": "Test Example 1: effect of the herbicide composition against paddy field weeds (pot test, green house)", "type": "in vivo", "conditions": "3 weeks after treatment", "text": "as §3, §4, §2"}, "[3]": {"test_system": "Monochoria vaginalis Presl", "assay": "Test Example 1: effect of the herbicide composition against paddy field weeds (pot test, green house)", "type": "in vivo", "conditions": "3 weeks after treatment", "text": "as §3, §4, §2"}, "paddy rice": {"test_system": "paddy rice", "assay": "Test Example 2: test of effect of phytotoxicity reduction", "type": "in vivo", "conditions": "2 weeks after treatment", "text": "as §3\nIn a green house, paddy rice of 2-2.5 leafstage was transplanted to paddy field soil filled in a 1000 cm^2 pot to 2 cm depth and brought to a submerged condition of about 2-3 cm. Five days after the transplantation, prescribed diluted solution of preparation of each active compound and each herbicide in the following table was applied on water surface each singly or simultaneously. After the treatment, the submerged condition of 3 cm was maintained and the grade of phytotoxicity to paddy rice was studied 2 weeks after the treatment. The phytotoxicity was evaluated as 100% in case of complete death and 0% in case of no phytotoxicity."}, "[4]": {"assay": "Test Example 1: effect of the herbicide composition against paddy field weeds (pot test, green house)", "type": "in vivo, annual broad-leaves", "conditions": "504 h, read-out: Herbicidal effect (%) BBBBB", "text": "as §1, §2"}}, "data": [{"smiles": "C#CCN(C)c1c(C#N)cnn1-c1nn2c(c1Cl)CCCC2", "note": "[(b-6), pyraclonil]", "values": [{"measurement": "Herbicidal effect (%) BBBBB", "setting": "[1]; 50 g/ha single", "result": 90, "unit": "%"}, {"measurement": "Herbicidal effect (%) BBBBB", "setting": "[1]; 100 g/ha single", "result": 90, "unit": "%"}, {"measurement": "Herbicidal effect (%) CYPSE", "setting": "[2]; 50 g/ha single", "result": 20, "unit": "%"}, {"measurement": "Herbicidal effect (%) CYPSE", "setting": "[2]; 100 g/ha single", "result": 30, "unit": "%"}, {"measurement": "Herbicidal effect (%) SAGPY", "setting": "Sagittaria pygmaea Miq; 50 g/ha single", "result": 50, "unit": "%"}, {"measurement": "Herbicidal effect (%) SAGPY", "setting": "Sagittaria pygmaea Miq; 100 g/ha single", "result": 85, "unit": "%"}, {"measurement": "Herbicidal effect (%) MOOVP", "setting": "[3]; 50 g/ha single", "result": 80, "unit": "%"}, {"measurement": "Herbicidal effect (%) MOOVP", "setting": "[3]; 100 g/ha single", "result": 90, "unit": "%"}]}, {"smiles": "Cc1ccc(NC(=O)NC(C)(C)c2ccccc2)cc1", "note": "[(c-1), dymron]", "values": [{"measurement": "Phytotoxicity %", "setting": "paddy rice; 450 g/ha single", "result": 0, "unit": "%"}]}, {"smiles": "O=C(O)C1=NOC(c2ccccc2)(c2ccccc2)C1", "note": "[(c-3), isoxadifen]", "values": [{"measurement": "Phytotoxicity %", "setting": "paddy rice; 500 g/ha single", "result": 0, "unit": "%"}]}, {"smiles": "CCOC(=O)C1=NN(c2ccc(Cl)cc2Cl)C(C)(C(=O)OCC)C1", "note": "(centres unmarked) [(c-2), mefenpyr-diethyl]", "values": [{"measurement": "Phytotoxicity %", "setting": "paddy rice; 500 g/ha single", "result": 0, "unit": "%"}]}, {"smiles": "CC(C)(NC(=O)C(Br)C(C)(C)C)c1ccccc1", "note": "(centres unmarked) [(b-14), bromobutide]", "values": [{"measurement": "pest or weed control at 200 g/ha", "setting": "[4]", "result": 20, "unit": "%"}, {"measurement": "pest or weed control at 400 g/ha", "setting": "[4]", "result": 30, "unit": "%"}, {"measurement": "pest or weed control at 200 g/ha", "setting": "[2]; Cyperus serotinus, 504 h, 200 g/ha single, read-out: Herbicidal effect (%) CYPSE", "result": 40, "unit": "%"}, {"measurement": "pest or weed control at 400 g/ha", "setting": "[2]; Cyperus serotinus, 504 h, 400 g/ha single, read-out: Herbicidal effect (%) CYPSE", "result": 60, "unit": "%"}, {"measurement": "pest or weed control at 200 g/ha", "setting": "Sagittaria pygmaea Miq; Sagittaria pygmaea, 504 h, 200 g/ha single, read-out: Herbicidal effect (%) SAGPY", "result": 10, "unit": "%"}, {"measurement": "pest or weed control at 400 g/ha", "setting": "Sagittaria pygmaea Miq; Sagittaria pygmaea, 504 h, 400 g/ha single, read-out: Herbicidal effect (%) SAGPY", "result": 10, "unit": "%"}, {"measurement": "pest or weed control at 200 g/ha", "setting": "[3]; Pontederia vaginalis, 504 h, 200 g/ha single, read-out: Herbicidal effect (%) MOOVP", "result": 30, "unit": "%"}, {"measurement": "pest or weed control at 400 g/ha", "setting": "[3]; Pontederia vaginalis, 504 h, 400 g/ha single, read-out: Herbicidal effect (%) MOOVP", "result": 95, "unit": "%"}]}, {"smiles": "CS(=O)(=O)c1ccc(C(=O)C2C(=O)CCCC2=O)c(Cl)c1COCC1CCCO1", "note": "(centres unmarked) [(b-15), 2-{2-chloro-4-mesyl-3-[(tetrahydrofuran-2-ylmethoxy)-methyl]-benzoyl}-cyclohexan-1,3-dione]", "values": [{"measurement": "pest or weed control at 75 g/ha", "setting": "[4]; 75 g/ha single, 3 weeks after treatment", "result": 50, "unit": "%"}, {"measurement": "pest or weed control at 150 g/ha", "setting": "[4]; 150 g/ha single, 3 weeks after treatment", "result": 65, "unit": "%"}, {"measurement": "pest or weed control at 75 g/ha", "setting": "[2]; Cyperus serotinus, 504 h, 75 g/ha single, read-out: Herbicidal effect (%) CYPSE", "result": 80, "unit": "%"}, {"measurement": "pest or weed control at 150 g/ha", "setting": "[2]; Cyperus serotinus, 504 h, 150 g/ha single, read-out: Herbicidal effect (%) CYPSE", "result": 85, "unit": "%"}, {"measurement": "pest or weed control at 75 g/ha", "setting": "Sagittaria pygmaea Miq; Sagittaria pygmaea, 504 h, 75 g/ha single, read-out: Herbicidal effect (%) SAGPY", "result": 80, "unit": "%"}, {"measurement": "pest or weed control at 150 g/ha", "setting": "Sagittaria pygmaea Miq; Sagittaria pygmaea, 504 h, 150 g/ha single, read-out: Herbicidal effect (%) SAGPY", "result": 80, "unit": "%"}, {"measurement": "pest or weed control at 75 g/ha", "setting": "[3]; Pontederia vaginalis, 504 h, 75 g/ha single, read-out: Herbicidal effect (%) MOOVP", "result": 85, "unit": "%"}, {"measurement": "pest or weed control at 150 g/ha", "setting": "[3]; Pontederia vaginalis, 504 h, 150 g/ha single, read-out: Herbicidal effect (%) MOOVP", "result": 95, "unit": "%"}]}, {"smiles": "COC(=O)c1ccccc1CS(=O)(=O)NC(=O)Nc1nc(OC)cc(OC)n1", "note": "[(b-12), bensulfuron-methyl]", "values": [{"measurement": "pest or weed control at 2.5 g/ha", "setting": "[4]; 2.5 g/ha single, 3 weeks after treatment", "result": 50, "unit": "%"}, {"measurement": "pest or weed control at 5 g/ha", "setting": "[4]; 5 g/ha single, 3 weeks after treatment", "result": 60, "unit": "%"}, {"measurement": "pest or weed control at 2.5 g/ha", "setting": "[2]; Cyperus serotinus, 504 h, 2.5 g/ha single, read-out: Herbicidal effect (%) CYPSE", "result": 40, "unit": "%"}, {"measurement": "pest or weed control at 5 g/ha", "setting": "[2]; Cyperus serotinus, 504 h, 5 g/ha single, read-out: Herbicidal effect (%) CYPSE", "result": 40, "unit": "%"}, {"measurement": "pest or weed control at 2.5 g/ha", "setting": "Sagittaria pygmaea Miq; Sagittaria pygmaea, 504 h, 2.5 g/ha single, read-out: Herbicidal effect (%) SAGPY", "result": 50, "unit": "%"}, {"measurement": "pest or weed control at 5 g/ha", "setting": "Sagittaria pygmaea Miq; Sagittaria pygmaea, 504 h, 5 g/ha single, read-out: Herbicidal effect (%) SAGPY", "result": 50, "unit": "%"}, {"measurement": "pest or weed control at 2.5 g/ha", "setting": "[3]; Pontederia vaginalis, 504 h, 2.5 g/ha single, read-out: Herbicidal effect (%) MOOVP", "result": 30, "unit": "%"}, {"measurement": "pest or weed control at 5 g/ha", "setting": "[3]; Pontederia vaginalis, 504 h, 5 g/ha single, read-out: Herbicidal effect (%) MOOVP", "result": 60, "unit": "%"}]}]}
